# Source: patent US20070275936A1, “Formulations and Treatment Methods” (priority 1998, published 2007)
# Experiments:
# [1] = tested on: CD4+ memory T cell 1 (MT1) and memory T cell 2 (MT2) cells; test: MT1:MT2 memory T cell ratio in patients after 5 day i.m. BrEA; type: in vivo, human
# Experimental: In a separate clinical trial using 100 mg of BrEA delivered to patients once per day for 5 consecutive days by intramuscular injection, several patients were evaluated for changes in the ratio of CD4^+ memory T cell 1 cells (intracellular IFNγ^+ CD45RA^− CD62L^− CD11a^bright) or MT1 cells to memory T cell 2 cells (intracellular IL-4^+ CD45RA^− CD62L^+ CD11a^dim) or MT2 cells. MT1 cells mediate or facilitate Th1 immune responses and MT2 cells mediate or facilitate Th2 immune responses. An increase in the MT1:MT2 ratio indicates an enhanced Th1 immune response or immune status. See, e.g., D. K. Mitra et al., International Immunology 1999 11:1801-1810. […] The maximum observed increase was about 700% in one patient at 10 days after the last dose of BrEA was administered. The increase usually persisted for more than 10 days after the last dose of BrEA was administered.
# P. falciparum = test: Intravenous BrEA malaria patient trial; type: in vivo; details: day 14, two patients
# Experimental: Response to drug treatment was graded as per World Health Organization criteria (WHO 1973) in infected patients. Evaluation of therapeutic response was determined using the parasitic and fever clearance times. […]
# Microscopy. […] Parasitemia was quantified in thin films by counting 2000 red blood cells in clear contiguous fields and finding the proportion that was parasitized. In thick films, parasitemia was quantified by counting parasites against leukocytes. […] Approximately 5000 erythrocytes were counted in clear contiguous fields 24 and 48 h after incubation of blood obtained at each time point and graded for maturity into tiny rings, small rings, large rings, pigmented trophozoites and schizonts. […]
# Calculation of Parameters. […] Parasitemia quantification and clinical examination were done once every 6 hours for the first 72 hours, followed by daily assessment of the parameters up to day 7 (168 hrs) and thereafter on day 14.
# Blood films were Giemsa-stained and parasitemia quantification was done in thick films by counting 2000 parasites against leukocytes, and the thin films by finding the proportion of infected red blood cells. […]
compound,measurement,setting,value
"C[C@]12CC[C@H](O)C[C@@H]1CC[C@@H]1[C@@H]2CC[C@]2(C)C(=O)[C@H](Br)C[C@@H]12 [BrEA, 16α-bromo-3β-hydroxy-5α-androstane-17-one]",tested patients showing a transient increase in the MT1:MT2 ratio,[1]; 100 mg i.m. once per day for 5 consecutive days,7/7
same,maximum observed increase in the MT1:MT2 ratio,"[1]; one patient, 10 days after the last dose",about 700%
same,parasite clearance rate,P. falciparum,100%
